Experimental data as given in ChEMBL document CHEMBL5029144, “Positional Isomeric Effects on the Optical Properties, Multivalent Glycosidase Inhibition Effect, and Hypoglycemic Effect of Perylene Bisimide-deoxynojirimycin Conjugates” (J Med Chem, 2021).

Columns and labels:
[1] = Inhibition of Aspergillus niger alpha-glucosidase
[2] = Inhibition of Helix pomatia beta-mannosidase
[3] = Inhibition of green coffee beans alpha-galactosidase; parameters: species or system Coffea arabica
Mus musculus [4] = assay: Hypoglycemic effect in maltose treated C57BL-6J mouse assessed as reduction in postprandial blood glucose level at 2 mg/kg, po measured after 30 mins; type: functional; parameters: scale not given: the % may be the effect or the level left; details: 0.5 h
[5] = Inhibition of Escherichia coli beta-galactosidase
[6] = Inhibition of almond beta-glucosidase; parameters: species or system Prunus dulcis
Mus musculus [7] = assay: Hypoglycemic effect in maltose treated mouse C57BL-6J assessed as reduction in postprandial blood glucose level at 2 mg/kg, po measured after 15 mins; type: functional; parameters: scale not given: the % may be the effect or the level left; details: 0.25 h
Mus musculus [8] = assay: Hypoglycemic effect in maltose treated mouse C57BL-6J assessed as reduction in postprandial blood glucose level at 1 mg/kg, po measured after 15 mins; type: functional; parameters: scale not given: the % may be the effect or the level left; details: 0.25 h
Mus musculus [9] = assay: Hypoglycemic effect in maltose treated mouse C57BL-6J assessed as reduction in postprandial blood glucose level at 0.5 mg/kg, po measured after 30 mins; type: functional; parameters: scale not given: the % may be the effect or the level left
[10] = Stability of the compound in pH 7 by UV-vis spectroscopy; type: physicochemical; details: buffer
[11] = Inhibition of Green coffee beans alpha-galactosidase by Lineweaver-Burk plot; parameters: species or system Coffea arabica
[12] = Toxicity in C57BL-6J mouse assessed as spleen pathological change at 2 mg/kg, po measured after 10 days by hematoxylin and eosin staining analysis; type: organism-based; details: in vivo, 240 h, time 10 day
Alpha-mannosidase [13] = molecular target: T1, Alpha-mannosidase (Canavalia ensiformis, UniProt C0HJB3); assay: Inhibition of jack bean alpha-mannosidase
T1 sequence (C0HJB3 whole entry): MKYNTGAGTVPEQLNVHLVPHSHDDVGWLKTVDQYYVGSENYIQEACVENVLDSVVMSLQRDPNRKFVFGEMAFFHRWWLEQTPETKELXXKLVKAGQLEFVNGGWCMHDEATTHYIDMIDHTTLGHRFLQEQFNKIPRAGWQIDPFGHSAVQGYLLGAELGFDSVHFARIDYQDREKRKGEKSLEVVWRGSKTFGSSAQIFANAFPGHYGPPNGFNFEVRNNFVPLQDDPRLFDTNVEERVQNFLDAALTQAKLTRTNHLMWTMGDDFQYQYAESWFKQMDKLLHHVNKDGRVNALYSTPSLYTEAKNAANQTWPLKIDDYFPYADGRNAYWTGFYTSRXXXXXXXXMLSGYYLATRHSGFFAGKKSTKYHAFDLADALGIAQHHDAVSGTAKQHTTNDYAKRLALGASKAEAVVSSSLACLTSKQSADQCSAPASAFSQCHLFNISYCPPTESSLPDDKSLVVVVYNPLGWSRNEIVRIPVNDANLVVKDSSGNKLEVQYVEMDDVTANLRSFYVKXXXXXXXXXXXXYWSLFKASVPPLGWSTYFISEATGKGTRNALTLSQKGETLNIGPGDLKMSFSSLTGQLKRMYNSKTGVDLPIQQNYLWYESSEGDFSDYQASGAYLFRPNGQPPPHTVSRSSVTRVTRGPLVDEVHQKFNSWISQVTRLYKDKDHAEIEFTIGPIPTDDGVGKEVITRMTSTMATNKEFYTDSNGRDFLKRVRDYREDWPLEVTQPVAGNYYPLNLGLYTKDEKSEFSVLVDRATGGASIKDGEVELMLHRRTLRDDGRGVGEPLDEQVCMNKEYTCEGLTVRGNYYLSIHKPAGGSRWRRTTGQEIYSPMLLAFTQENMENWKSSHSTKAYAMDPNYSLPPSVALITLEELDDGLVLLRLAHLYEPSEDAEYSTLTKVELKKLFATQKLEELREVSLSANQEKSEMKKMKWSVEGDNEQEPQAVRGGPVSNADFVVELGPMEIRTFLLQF

[14] = molecular target: T2, Alpha-mannosidase (Canavalia ensiformis) (UniProt C0HJB3); assay: Potency index, ratio of DNJ-1 Kd to test compound Kd for inhibition of Jack bean alpha-mannosidase
T2 sequence (whole entry): T1 sequence (C0HJB3 whole entry)

Coffea arabica = assay: Potency index, ratio of miglitol Kd to test compound Kd for inhibition of Green coffee beans alpha-galactosidase
Mus musculus [15] = assay: Hypoglycemic effect in maltose treated mouse C57BL-6J assessed as reduction in postprandial blood glucose level at 1 mg/kg, po measured after 30 mins; type: functional; parameters: scale not given: the % may be the effect or the level left; details: 0.5 h
Alpha-mannosidase [16] = molecular target: T1, Alpha-mannosidase; assay: Inhibition of Jack bean alpha-mannosidase by Lineweaver-Burk plot
[17] = Stability of the compound in pH 2 by UV-vis spectroscopy; type: physicochemical; details: buffer
[18] = Toxicity in C57BL-6J mouse assessed as heart pathological change at 2 mg/kg, po measured after 10 days by hematoxylin and eosin staining analysis; type: organism-based; details: in vivo, 240 h, time 10 day
[19] = (§1) Inhibition of mammalian Alpha-glucosidase (unknown origin) using PNPG as substrate pretreated for 20 mins followed by substrate addition measured after 26 mins
Homo sapiens = species: Homo sapiens; assay: as §1
[20] = Toxicity in C57BL-6J mouse assessed as increase in body weight at 2 mg/kg, po measured after 10 days; type: organism-based; details: in vivo, 240 h, time 10 day
[21] = Toxicity in C57BL-6J mouse assessed as increase in body weight at 2 mg/kg, po measured upto 30 days; type: organism-based; details: in vivo, 720 h, time <=30 day
[22] = Toxicity in C57BL-6J mouse assessed as kidney pathological change at 2 mg/kg, po measured after 10 days by hematoxylin and eosin staining analysis; type: organism-based; details: in vivo, 240 h, time 10 day
Mus musculus [23] = assay: Hypoglycemic effect in maltose treated po dosed C57BL-6J mouse assessed as reduction in postprandial blood glucose level measured upto 180 mins; type: functional, organism-based; details: time min <=180
[24] = Toxicity in C57BL-6J mouse assessed as lung pathological change at 2 mg/kg, po measured after 10 days by hematoxylin and eosin staining analysis; type: organism-based; details: in vivo, 240 h, time 10 day
[25] = molecular target: T2, Alpha-mannosidase (Canavalia ensiformis); assay: Potency index, ratio of miglitol Kd to test compound Kd for inhibition of Jack bean alpha-mannosidase
Aspergillus niger [26] = assay: Potency index, ratio of DNJ-1 Kd to test compound Kd for inhibition of Aspergillus niger alpha-glucosidase
Aspergillus niger [27] = assay: Potency index, ratio of miglitol Kd to test compound Kd for inhibition of Aspergillus niger alpha-glucosidase
[28] = Toxicity in C57BL-6J mouse assessed as liver pathological change at 2 mg/kg, po measured after 10 days by hematoxylin and eosin staining analysis; type: organism-based; details: in vivo, 240 h, time 10 day
Mus musculus [29] = assay: Hypoglycemic effect in maltose treated mouse C57BL-6J assessed as reduction in postprandial blood glucose level at 0.5 mg/kg, po measured after 15 mins; type: functional; parameters: scale not given: the % may be the effect or the level left; details: 0.25 h
[30] = Inhibition of Aspergillus niger alpha-glucosidase by Lineweaver-Burk plot

SMILES | Kd [1] [µM] | Kd [2] | Kd [3] | Activity (Mus musculus [4]) [%] | Kd [5] | Kd [6] | Activity (Mus musculus [7]) [%] | Activity (Mus musculus [8]) [%] | Stability [10] | Ki [11] [µM] | Activity [12] | Kd (Alpha-mannosidase [13]) [µM] | Ratio [14] | Ratio (Coffea arabica) | Ki (Alpha-mannosidase [16]) [µM] | Stability [17] | Activity [18] | IC50 [19] [µM] | inhibition (Homo sapiens) | Activity [20] | other results
OCCN1C[C@H](O)[C@@H](O)[C@H](O)[C@H]1CO [MIGLITOL] | 20.6 | Not Active | Not Active | 36.6 | Not Active | Not Active | 40.4 | 27.3 |  |  |  |  |  |  |  |  |  |  |  |  | 
O=C1c2cc(Cl)c3c4c(Oc5ccc(OCc6cn(CCCN7C[C@H](O)[C@@H](O)[C@H](O)[C@H]7CO)nn6)cc5)cc5c6c(cc(Oc7ccc(OCc8cn(CCCN9C[C@H](O)[C@@H](O)[C@H](O)[C@H]9CO)nn8)cc7)c(c7c(Cl)cc(c2c37)C(=O)N1Cc1cn(CCCN2C[C@H](O)[C@@H](O)[C@H](O)[C@H]2CO)nn1)c64)C(=O)N(Cc1cn(CCCN2C[C@H](O)[C@@H](O)[C@H](O)[C@H]2CO)nn1)C5=O | 13.1 | Not Active |  | 37.4 | Not Active | Not Active | 41.3 | 29.2 | Stable | 1.43 | Non-Toxic | 0.12 | 2310 | 9.7 | 0.12 | Stable | Non-Toxic | 11.6 | Dose-Dependent Effect | Non-Toxic | Activity (Mus musculus [9]): 15.2%; Activity (Mus musculus [15]): 20.8%; Activity [21]: Toxic; Kd ([3]; read-out: Kd): 1.43 µM; Activity [22]: Non-Toxic; Activity (Mus musculus [23]): Dose-Dependent Effect; Activity [24]: Non-Toxic; Ratio [25]: 876; Ratio (Aspergillus niger [26]): 4.7; Ratio (Aspergillus niger [27]): 1.5; Activity [28]: Non-Toxic; Activity (Mus musculus [29]): 22.4%; Ki [30]: 13.1 µM
O=C1c2cc(Cl)c3c4c(Cl)cc5c6c(cc(Oc7ccc(OCc8cn(CCCN9C[C@H](O)[C@@H](O)[C@H](O)[C@H]9CO)nn8)cc7)c(c7c(Oc8ccc(OCc9cn(CCCN%10C[C@H](O)[C@@H](O)[C@H](O)[C@H]%10CO)nn9)cc8)cc(c2c37)C(=O)N1Cc1cn(CCCN2C[C@H](O)[C@@H](O)[C@H](O)[C@H]2CO)nn1)c64)C(=O)N(Cc1cn(CCCN2C[C@H](O)[C@@H](O)[C@H](O)[C@H]2CO)nn1)C5=O | 14.7 | Not Active |  |  | Not Active | Not Active | 22.2 | 11.3 | Stable | 1.03 | Non-Toxic | 0.017 | 16300 | 7.2 | 0.017 | Stable | Non-Toxic | 14.4 | Dose-Dependent Effect | Non-Toxic | Activity [21]: Toxic; Kd ([3]; read-out: Kd): 1.93 µM; Activity [22]: Non-Toxic; Activity (Mus musculus [23]): Dose-Dependent Effect; Activity [24]: Non-Toxic; Ratio [25]: 6180; Ratio (Aspergillus niger [26]): 4.2; Ratio (Aspergillus niger [27]): 1.4; Activity [28]: Non-Toxic; Activity (Mus musculus [29]): 4%; Ki [30]: 14.7 µM
OCc1cn(CCCN2C[C@H](O)[C@@H](O)[C@H](O)[C@H]2CO)nn1 | 61.6 | Not Active | Not Active |  | Not Active | Not Active |  |  |  |  |  | 277 |  |  |  |  |  |  |  |  | 
